From patent US6958341B2, “Pyrazolopyrimidines as CRF antagonists” (Bristol-Myers Squibb Pharma Company, priority 1999, dated 2005)

Question: Which melting point does the source give for `CCC(CC)c1c(O)nn2c(-c3ccc(Cl)cc3Cl)c(C)cnc12` [Example 92, 7-(2,4-dichlorophenyl)-2-hydroxy-6-methyl-3-(3-pentyl)pyrazolo[1,5-a]pyrimidine] here?
Answer: Its melting point is 227 to 228 °C.
